Data published in patent publication US8450313B2, “2,3-diaryl- or heteroaryl-substituted 1,1,1-trifluoro-2-hydroxypropyl compounds” (Hoffmann-La Roche Inc., priority 2009, dated 2013).

Target: T1, full length human recombinant glucocorticoid receptor (Homo sapiens, UniProt P04150)
T1 construct: It contains some partially purified full length human recombinant glucocorticoid receptor; purchased Panvera/Invitrogen PV4302
T1 sequence (P04150 1-777): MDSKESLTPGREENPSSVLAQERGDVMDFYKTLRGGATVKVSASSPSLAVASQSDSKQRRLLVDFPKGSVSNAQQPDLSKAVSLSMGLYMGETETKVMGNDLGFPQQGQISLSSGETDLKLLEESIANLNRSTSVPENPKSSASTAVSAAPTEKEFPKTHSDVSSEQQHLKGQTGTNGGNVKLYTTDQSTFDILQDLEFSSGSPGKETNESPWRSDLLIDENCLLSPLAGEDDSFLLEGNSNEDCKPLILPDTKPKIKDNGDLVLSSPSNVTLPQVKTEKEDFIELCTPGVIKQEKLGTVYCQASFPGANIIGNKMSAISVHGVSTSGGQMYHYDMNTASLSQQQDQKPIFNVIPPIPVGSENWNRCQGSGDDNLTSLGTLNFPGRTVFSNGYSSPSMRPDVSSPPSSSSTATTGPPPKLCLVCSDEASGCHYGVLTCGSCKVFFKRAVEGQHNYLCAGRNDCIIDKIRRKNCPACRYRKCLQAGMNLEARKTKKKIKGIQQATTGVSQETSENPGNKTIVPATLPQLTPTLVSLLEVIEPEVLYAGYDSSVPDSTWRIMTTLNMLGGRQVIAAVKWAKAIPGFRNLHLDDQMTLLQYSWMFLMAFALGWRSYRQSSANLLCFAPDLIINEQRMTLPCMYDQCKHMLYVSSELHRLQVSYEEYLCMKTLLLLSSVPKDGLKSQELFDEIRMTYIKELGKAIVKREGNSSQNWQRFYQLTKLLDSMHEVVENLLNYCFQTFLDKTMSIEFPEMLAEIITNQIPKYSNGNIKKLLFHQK
Assay: Glucocorticoid Receptor Binding Assay (Glucocorticoid Receptor Competitor Assay far red kit, fluorescence polarization)
Conditions: competition with fluorescent GR ligand Fluormone GS Far Red, 3 hours at 22° C., pH 7.4; Ki calculated from IC50 by Cheng-Prusoff
Procedure, shortened: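 Compounds in serial dilution (from intermediate 4.2% DMSO stock) displace Fluormone GS Far Red from full-length human recombinant GR with stabilizing peptide, pH 7.4, incubated 3 hours at 22° C dark. Polarized fluorescence (610–660 nm) gives IC50 via sigmoidal fit, converted to Ki by Cheng-Prusoff.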

Structure (SMILES) | Ki [nM]
C[C@@H](c1ccc(Oc2ccc(C(=O)O)c(Cl)n2)cc1Cl)[C@](O)(c1ccc2c(c1)N(C)S(=O)(=O)N2C)C(F)(F)F (relative stereo) [Example 159, 2-Chloro-6-{3-chloro-4-[2-(1,3-dimethyl-2,2-dioxo-2,3-dihydro-1H-2λ6-benzo[1,2,5]thiadiazol-5-yl)-3,3,3-trifluoro-2-hydroxy-1-methyl-propyl]-phenoxy}-nicotinic acid] | 2.1
C[C@H](c1ccc(-c2ccc(C(=O)O)c(F)c2)cc1Cl)[C@@](O)(c1ccc2c(c1)N(C)C(=O)C(C)(C)O2)C(F)(F)F (relative stereo) [Example 168, 3′-Chloro-3-fluoro-4′-[3,3,3-trifluoro-2-hydroxy-1-methyl-2-(2,2,4-trimethyl-3-oxo-3,4-dihydro-2H-benzo[1,4]oxazin-6-yl)-propyl]-biphenyl-4-carboxylic acid] | 609
C[C@H](c1ccc(Oc2cnc(C(=O)O)cn2)cc1Cl)[C@@](O)(c1ccc2c(c1)N(C)C(=O)CO2)C(F)(F)F (racemic) [Example 228, 5-{3-Chloro-4-[3,3,3-trifluoro-2-hydroxy-1-methyl-2-(4-methyl-3-oxo-3,4-dihydro-2H-benzo[1,4]oxazin-6-yl)-propyl]-phenoxy}-pyrazine-2-carboxylic acid] | 10.6
C[C@@H](c1ccc(-c2cccc(C(=O)O)c2)cc1Cl)[C@](O)(c1ccc2c(c1)N(C)C(=O)CO2)C(F)(F)F (stereo in doubt) [Example 23, 3′-Chloro-4′-[3,3,3-trifluoro-2-hydroxy-1-methyl-2-(4-methyl-3-oxo-3,4-dihydro-2H-benzo[1,4]oxazin-6-yl)-propyl]-biphenyl-3-carboxylic acid] | 1.3
C[C@@H](c1cc(Oc2ccc(C(=O)O)cc2F)ccc1Cl)[C@](O)(c1ccc2c(c1)N(C)C(=O)CO2)C(F)(F)F (relative stereo) [Example 16, 4-{4-Chloro-3-[3,3,3-trifluoro-2-hydroxy-1-methyl-2-(4-methyl-3-oxo-3,4-dihydro-2H-benzo[1,4]oxazin-6-yl)-propyl]-phenoxy}-3-fluoro-benzoic acid] | 2.5
C[C@H](c1ccc(Oc2ccc(C(=O)O)c(Cl)c2)cc1Cl)[C@@](O)(c1ccc2c(c1)OCC(=O)N2C)C(F)(F)F (relative stereo) [Example 160, 2-Chloro-4-{3-chloro-4-[3,3,3-trifluoro-2-hydroxy-1-methyl-2-(4-methyl-3-oxo-3,4-dihydro-2H-benzo[1,4]oxazin-7-yl)-propyl]-phenoxy}-benzoic acid] | 1.3
C[C@H](c1ccc(Oc2ccc(C(=O)O)c(Cl)c2)cc1Cl)[C@](O)(c1ccc2c(c1)OCO2)C(F)(F)F (relative stereo) [Example 103, 4-[4-(2-Benzo[1,3]dioxol-5-yl-3,3,3-trifluoro-2-hydroxy-1-methyl-propyl)-3-chloro-phenoxy]-2-chloro-benzoic acid] | 23.1
C[C@H](c1ccc(Oc2ccc(C(=O)O)c(F)c2)cc1Cl)[C@@](O)(c1ccc2c(c1)OCC(=O)N2C)C(F)(F)F (stereo in doubt) [Example 166, 4-{3-Chloro-4-[3,3,3-trifluoro-2-hydroxy-1-methyl-2-(4-methyl-3-oxo-3,4-dihydro-2H-benzo[1,4]oxazin-7-yl)-propyl]phenoxy}-2-fluoro-benzoic acid] | 2.7
C[C@H](c1ccc(Oc2ccc(C(=O)O)cn2)cc1Cl)[C@@](O)(c1ccc2c(c1)N(C)C(=O)CO2)C(F)(F)F (stereo in doubt) [Example 205, 6-{3-Chloro-4-[3,3,3-trifluoro-2-hydroxy-1-methyl-2-(4-methyl-3-oxo-3,4-dihydro-2H-benzo[1,4]oxazin-6-yl)-propyl]-phenoxy}-nicotinic acid] | 2.5
CCOC(=O)c1cc(-c2ccc([C@H](C)[C@](O)(c3ccc4oc(=O)n(C)c4c3)C(F)(F)F)c(Cl)c2)ccc1F (relative stereo) [Example 121, 3′-Chloro-4-fluoro-4′-[3,3,3-trifluoro-2-hydroxy-1-methyl-2-(3-methyl-2-oxo-2,3-dihydro-benzooxazol-5-yl)-propyl]-biphenyl-3-carboxylic acid ethyl ester] | 1.6

Results, then the compound that gave them:

Ki [nM] | Structure (SMILES)
1.1 | C[C@@H](c1ccc(Oc2ccc(C(=O)O)c(C(F)(F)F)n2)cc1Cl)[C@](O)(c1ccc2c(c1)n(C)c(=O)n2C)C(F)(F)F (stereo in doubt) [Example 115, 6-{3-Chloro-4-[2-(1,3-dimethyl-2-oxo-2,3-dihydro-1H-benzoimidazol-5-yl)-3,3,3-trifluoro-2-hydroxy-1-methyl-propyl]-phenoxy}-2-trifluoromethyl-nicotinic acid]
1.3 | C[C@@H](c1ccc(-c2ccc(F)c(OCC(=O)O)c2)cc1Cl)[C@](O)(c1cc(F)c2c(c1)N(C)C(=O)CO2)C(F)(F)F (stereo in doubt) [Example 48, {3′-Chloro-4-fluoro-4′-[3,3,3-trifluoro-2-(8-fluoro-4-methyl-3-oxo-3,4-dihydro-2H-benzo[1,4]oxazin-6-yl)-2-hydroxy-1-methyl-propyl]-biphenyl-3-yloxy}-acetic acid]
1.3 | COC(=O)c1ccc(-c2ccc([C@H](C)[C@](O)(c3cc4c(cc3F)OCC(=O)N4C)C(F)(F)F)c(Cl)c2)cc1F (relative stereo) [Example 136, 3′-Chloro-3-fluoro-4′-[3,3,3-trifluoro-2-(7-fluoro-4-methyl-3-oxo-3,4-dihydro-2H-benzo[1,4]oxazin-6-yl)-2-hydroxy-1-methyl-propyl]-biphenyl-4-carboxylic acid methyl ester]
0.4 | C[C@@H](c1ccc(Oc2ccc(C(=O)O)c(Cl)c2)cc1Cl)[C@](O)(c1ccc2c(c1)n(C)c(=O)n2C)C(F)(F)F (stereo in doubt) [Example 90, 2-Chloro-4-{3-chloro-4-[2-(1,3-dimethyl-2-oxo-2,3-dihydro-1H-benzoimidazol-5-yl)-3,3,3-trifluoro-2-hydroxy-1-methyl-propyl]-phenoxy}-benzoic acid]
0.3 | C[C@H](c1ccc(Oc2cccc(OCC(=O)O)c2)cc1Cl)[C@@](O)(c1ccc2c(c1)n(C)c(=O)n2C)C(F)(F)F (stereo in doubt) [Example 94, (3-{3-Chloro-4-[2-(1,3-dimethyl-2-oxo-2,3-dihydro-1H-benzoimidazol-5-yl)-3,3,3-trifluoro-2-hydroxy-1-methyl-propyl]-phenoxy}-phenoxy)-acetic acid]
0.5 | C[C@H](c1ccc(Oc2ccc(C(=O)O)cn2)cc1Cl)[C@@](O)(c1ccc2oc(=O)n(C)c2c1)C(F)(F)F (stereo in doubt) [Example 181, 6-{3-Chloro-4-[3,3,3-trifluoro-2-hydroxy-1-methyl-2-(3-methyl-2-oxo-2,3-dihydro-benzooxazol-5-yl)-propyl]-phenoxy}-nicotinic acid]
1.2 | C[C@H](c1ccc(Oc2cc(Cl)c(C(=O)O)cn2)cc1Cl)[C@@](O)(c1ccc2c(c1)N(C)C(=O)CO2)C(F)(F)F (stereo in doubt) [Example 211, 4-Chloro-6-{3-chloro-4-[3,3,3-trifluoro-2-hydroxy-1-methyl-2-(4-methyl-3-oxo-3,4-dihydro-2H-benzo[1,4]oxazin-6-yl)-propyl]-phenoxy}-nicotinic acid]
